Laboratory results published in patent US12568982B2, “Systems for retaining potency in an infused beverage” (Vertosa Inc., priority 2020, dated 2026).

Columns and labels:
Format in all cases: physicochemical
[1] = THC potency loss in glass bottle with child-resistant cap at room temperature
Excerpt: The concentration of the antioxidant was studied to ensure the antioxidant will last long enough to protect against THC degradation.

[2] = Terpene oxidation with ascorbic acid or EDTA at 40° C.
Excerpt: However, nearly all terpenes can be oxidized and some can oxidize faster than others. When terpenes are put into a ready-to-drink beverage, the chemical degradation that can be caused by oxidation needs to be considered. When the oxidation happens, it not only diminishes the designed effect of the product, but it also creates unknown by-products that can be potentially harmful to consume. Oxidation rate of α-pinene and limonene was compared with the addition of ascorbic acid and EDTA.

[3] = Contact angle of liquids on aluminum can liner (hydrophobicity study); details: Krüss contact angle machine; flattened liner side of aluminum can
Procedure: For hydrophobicity studies, a Krüss contact angle machine was used. An aluminum can was cut in half, and the flattened liner side was used as the testing surface. The contact angle of water, coconut oil, coconut oil+THC at different ratios, and coconut oil+CBD at different ratios on the liner was measured.

[4] = Oil-phased versus water-phased antioxidants, THC potency loss at 40° C.; details: polysorbate emulsion, antioxidant 0.01%, glass bottle with crown cap
Excerpt: There are two major types of antioxidants depending on their solubility: oil-phased antioxidants and water-phased antioxidants. The oil-phased antioxidants usually exist within the emulsion droplet and water-phased antioxidants are usually added during beverage production. It was believed that both types of antioxidants should work since they follow similar mechanisms: both function as a sacrificial agent to be oxidized prior to oxidation of the API, or they function as chelating agents where they scavenge the metal ions that catalyze oxidation. […] An emulsion was produced using polysorbate, shown as Emulsion 1 in Table 3. The antioxidant concentration was targeted at 0.01%.

[5] = Water-soluble antioxidant standard protocol, THC potency decay at 40° C.; details: for THC potency loss at 10 weeks with combined antioxidants: Polysorbate Emulsion 1
Procedure: The study was done with standard protocol: 20 mg THC nanoemulsion was diluted in 12 oz purified water into an amber glass bottle which was finished with a crown cap. The nanoemulsion was produced using polysorbate as an emulsifier with 50 nm droplet size (See Emulsion 1 from Table 3). The pH of the solution was adjusted to 4.0. The water-soluble antioxidants were added into the final solution at 0.005% (50 ppm).
All the testing above was based on the THC nanoemulsion made with polysorbate as an emulsifier (see Emulsion 1 from Table 3). Two other THC emulsions were produced with polyglycerol and Q-Naturale (see Emulsion 3 and 4 from […]).
The three oil soluble antioxidants were all targeted at 0.01% (100 ppm).

[6] = oil-soluble antioxidant at 100 ppm + 10 ppm EDTA
[7] = oil-soluble antioxidant at 100 ppm + 50 ppm Ascorbic Acid
[8] = 20 mg THC polysorbate nanoemulsion in 12 oz water, pH 4.0, amber glass, 40° C., antioxidant 0.005% (50 ppm)

Compound: O=C(O)CN(CCN(CC(=O)O)CC(=O)O)CC(=O)O [EDTA, Ethylenediaminetetraacetic acid]
- THC potency loss % ([1]; EDTA 5 ppm, 6 months at room temperature): 16%
- THC potency loss % ([1]; EDTA 5 ppm, 12 months at room temperature): 39%
- THC potency loss % ([1]; EDTA 10 ppm, 6 months at room temperature): 8%
- THC potency loss % ([1]; EDTA 10 ppm, 12 months at room temperature): 12%
- THC potency loss % ([1]; EDTA 20 ppm, 6 months at room temperature): 6%
- THC potency loss % ([1]; EDTA 20 ppm, 12 months at room temperature): 9%

Compound: CCCCCc1cc(O)c2c(c1)OC(C)(C)[C@@H]1CCC(C)=C[C@@H]21 [THC, Tetrahydrocannabinol]
- THC potency loss % ([1]; No antioxidant, 6 months at room temperature, child resistant cap type 1): 56%
- THC potency loss % ([1]; No antioxidant, 12 months at room temperature, child resistant cap type 1): 78%

Compound: CC1=CCC2CC1C2(C)C (stereo not drawn) [α-pinene]
- 2-weeks potency loss at 40° C. ([2]; 10 ppm EDTA): 6%
- 2-weeks potency loss at 40° C. ([2]; 50 ppm ascorbic acid): 4%
- 2-weeks potency loss at 40° C. ([2]; No antioxidant): 57%

Compound: C=CC(=C)CCC=C(C)C [myrcene]
- 2-weeks potency loss at 40° C. ([2]; 10 ppm EDTA): 6%
- 2-weeks potency loss at 40° C. ([2]; 50 ppm ascorbic acid): 3%
- 2-weeks potency loss at 40° C. ([2]; No antioxidant): 38%

Compound: O [Water]
- Contact Angle on Liner [3]: 85°

Compound: C=CC(C)(O)CCC=C(C)C (stereo not drawn) [linalool]
- 2-weeks potency loss at 40° C. ([2]; 10 ppm EDTA): 9%
- 2-weeks potency loss at 40° C. ([2]; 50 ppm ascorbic acid): 6%
- 2-weeks potency loss at 40° C. ([2]; No antioxidant): 46%

Compound: O=C1O[C@H]([C@@H](O)CO)C(O)=C1O [Ascorbic Acid, ascorbic acid]
- THC loss at 10 weeks [4]: 17%
- THC potency loss % ([1]; Ascorbic acid 20 ppm, 6 months at room temperature): 21%
- THC potency loss % ([1]; Ascorbic acid 20 ppm, 12 months at room temperature): 35%
- THC potency loss % ([1]; Ascorbic acid 50 ppm, 6 months at room temperature): 7%
- THC potency loss % ([1]; Ascorbic acid 50 ppm, 12 months at room temperature): 10%
- THC potency loss % ([1]; Ascorbic acid 200 ppm, 6 months at room temperature): 3%
- THC potency loss % ([1]; Ascorbic acid 200 ppm, 12 months at room temperature): 7%

Compound: tocopherol [Vitamin E (tocopherol)]
- THC loss at 4 weeks [4]: 25%
- THC loss at 10 weeks [4]: 46%
- THC potency loss at 10 weeks with combined antioxidants [5, 6]: 7%
- THC potency loss at 10 weeks with combined antioxidants [5, 7]: 6%

Compound: O=C(O)c1cc(O)c(O)c(O)c1 [Gallic acid]
- THC loss at 4 weeks [5, 8]: 10%
- THC loss at 10 weeks [5, 8]: 27%

Compound: CCCOC(=O)c1cc(O)c(O)c(O)c1 [Propyl Gallate, propyl gallate]
- THC potency loss at 10 weeks with combined antioxidants [5, 6]: 6%
- THC potency loss at 10 weeks with combined antioxidants [5, 7]: 7%

Compound: C=C(C)[C@H]1CC=C(C)CC1 [limonene]
- 2-weeks potency loss at 40° C. ([2]; 10 ppm EDTA): 8%
- 2-weeks potency loss at 40° C. ([2]; 50 ppm ascorbic acid): 7%
- 2-weeks potency loss at 40° C. ([2]; No antioxidant): 68%
